The target in one series is T1, DAPK2 (Homo sapiens, UniProt Q9UIK4).
T1 construct: expressed in transfected cells; host or cells: HEK293
Kind of series: NanoBRET dose-response DAPK2. It counts as cell-based. The settings on record: highest concentration tested 30 μM.

Another series has as its target T2, PHKG1 (Homo sapiens, UniProt Q16816).
T2 construct: purchased Promega (NanoBRET Target Engagement K192 Kinase Selectivity System)
Kind of series: NanoBRET dose-response PHKG1. It counts as cell-based. The settings on record: highest concentration tested 30 μM. Background: Bioluminescence resonance energy transfer reports proximity on the nanometre scale.

The subject of a further series is CSNK2. Kind of series: In vitro inhibition of phosphorylation of EIF2S2. It is filed as cell-based, Human. The settings on record: A549-ACE2 cells, 1 μM and 5 μM, 24 h, Western blot. A general note: In western blotting, separated proteins are transferred to a membrane and probed.
For another series, the target named is T3, CLK2 (Homo sapiens, UniProt P49760).
T3 construct: expressed in transfected cells; host or cells: HEK293
Kind of series: NanoBRET dose-response CLK2. To be noted: highest concentration tested 30 μM. It is filed as cell-based.

Series [1] in a line: Hepatocyte stability, mouse. It counts as in vitro ADME. The settings on record: male, CD-1, cryopreserved hepatocytes, over 2 h. The procedure: Human cryopreserved hepatocytes were supplied by BioIVT (lot QZW, 10 pooled donors, Westbury, NY, USA). Mouse cryopreserved hepatocytes were supplied by BioIVT (lot ZPG, pooled male CD-1). Vials of cryopreserved hepatocytes were removed from storage and thawed in a 37 °C water bath with gentle shaking, and then the contents were poured into a 50 mL thawing medium conical tube. Vials were centrifuged at 100× g for 10 min at room temperature. The thawing medium was aspirated, and hepatocytes were resuspended with a serum-free incubation medium to yield ~1.5 × 10^6 cells/mL. Cell viability and density were counted using AO/PI fluorescence staining, and then cells were diluted with a serum-free incubation medium to a working cell density of 0.5 × 10^6 viable cells/mL. Aliquots of 198 μL of hepatocytes were dispensed into each well of a 96-well noncoated plate. The plate was placed in an incubator for approximately 10 min. […] Peak areas were determined from extracted ion chromatograms, and the slope value, k, was determined by linear regression of the natural logarithm of the remaining percentage of the parent drug vs. incubation time curve. The intrinsic clearance (CLint in μL/min/10^6 cells) was calculated using the relationship CLint = kV/N, where V is the incubation volume (0.2 mL) and N is the number of hepatocytes per well (0.1 × 10^6 cells). […]

The nature of series [2]: CellTiter-Glo cytotoxicity assay. It is filed as cell-based, Human. The settings on record: human, A549-ACE2 cells, 48 h, CellTiter-Glo, quadruplicate. On the procedure:
(§1) A549-ACE2 cells were maintained in low-glucose DMEM (Gibco, Waltham, MA, USA) supplemented with 10% FBS, 1% NEAA, and 1% L-glutamine. No antibiotics were used. Cells were plated at 2000 cells/well in a 384-well plate (Costar, Glendale, AZ, USA) and incubated overnight (37 °C, 5% CO2) before adding the compound. Compounds were added in quadruplicate and incubated for 48 h. DMSO percentage was constant across all concentrations of the compound. Cell viability was measured using CellTiter-Glo2 (Promega, Madison, WI, USA) and the luminescence signal was read on a GloMax plate reader (Promega, Madison, WI, USA). Dose–response analysis was performed using GraphPad Prism.

For a further series, the system named is A549-ACE2 cells. Kind of series: CellTiter-Glo cytotoxicity assay. It counts as cell-based, Human. On the procedure: as §1
In general terms: In ATP-based viability assays light output follows the ATP content of the culture.

Another series is described as follows: Kinetic solubility. It is filed as physicochemical. The settings on record: phosphate buffered saline, 22 °C, aqueous buffer, kinetic from dmso stock; PBS pH 7.4 from DMSO stock. On the procedure:
Phosphate buffered saline (50 mL, PBS, Fisher (Pittsburgh, PA, USA), pH 7.4) was added to HPLC-grade H2O (450 mL) for a total dilution factor of 1:10 and a final PBS concentration of 1×. […] The final DMSO concentration was 2.0%, and the maximum theoretical compound concentration was 200 μM. The filter plate was heat-sealed for a 24 h incubation. The sample was placed on a rotary shaker (200 rpm) for 24 h at ambient temperature (21.6–22.8 °C) and then vacuum-filtered. All filtrates were injected into a chemiluminescent nitrogen detector for quantification. The equimolar nitrogen response of the detector was calibrated using standards that span the dynamic range of the instrument from 0.08 to 4500 μg/mL nitrogen. The filtrates were quantified with respect to this calibration curve. The calculated solubility values were corrected for background nitrogen present in DMSO and the media used to prepare the samples.

Values after ≈ are worked out from the molar mass of the structure shown. “Also recorded” adds a separate entry of the source.

T2 sequence (Q16816 whole entry): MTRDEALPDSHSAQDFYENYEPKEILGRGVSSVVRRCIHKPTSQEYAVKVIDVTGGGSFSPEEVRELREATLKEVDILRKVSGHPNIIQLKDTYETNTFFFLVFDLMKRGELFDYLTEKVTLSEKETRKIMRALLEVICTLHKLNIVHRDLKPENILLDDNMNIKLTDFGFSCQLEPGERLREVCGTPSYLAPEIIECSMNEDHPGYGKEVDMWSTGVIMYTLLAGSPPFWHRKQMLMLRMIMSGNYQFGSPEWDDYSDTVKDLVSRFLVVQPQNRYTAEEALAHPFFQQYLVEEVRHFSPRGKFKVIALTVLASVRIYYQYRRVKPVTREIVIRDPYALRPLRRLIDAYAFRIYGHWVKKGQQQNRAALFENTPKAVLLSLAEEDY
T1 sequence (Q9UIK4 whole entry): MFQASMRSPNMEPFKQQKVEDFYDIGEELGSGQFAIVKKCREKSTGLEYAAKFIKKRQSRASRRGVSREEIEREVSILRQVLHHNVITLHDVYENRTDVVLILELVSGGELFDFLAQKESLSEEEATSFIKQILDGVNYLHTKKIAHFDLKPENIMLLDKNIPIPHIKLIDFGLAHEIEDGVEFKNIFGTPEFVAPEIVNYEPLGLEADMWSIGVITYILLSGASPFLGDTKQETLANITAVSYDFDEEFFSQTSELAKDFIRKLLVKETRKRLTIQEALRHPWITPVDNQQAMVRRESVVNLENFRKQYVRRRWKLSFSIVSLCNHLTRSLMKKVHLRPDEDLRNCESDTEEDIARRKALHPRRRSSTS
T3 sequence (P49760 whole entry): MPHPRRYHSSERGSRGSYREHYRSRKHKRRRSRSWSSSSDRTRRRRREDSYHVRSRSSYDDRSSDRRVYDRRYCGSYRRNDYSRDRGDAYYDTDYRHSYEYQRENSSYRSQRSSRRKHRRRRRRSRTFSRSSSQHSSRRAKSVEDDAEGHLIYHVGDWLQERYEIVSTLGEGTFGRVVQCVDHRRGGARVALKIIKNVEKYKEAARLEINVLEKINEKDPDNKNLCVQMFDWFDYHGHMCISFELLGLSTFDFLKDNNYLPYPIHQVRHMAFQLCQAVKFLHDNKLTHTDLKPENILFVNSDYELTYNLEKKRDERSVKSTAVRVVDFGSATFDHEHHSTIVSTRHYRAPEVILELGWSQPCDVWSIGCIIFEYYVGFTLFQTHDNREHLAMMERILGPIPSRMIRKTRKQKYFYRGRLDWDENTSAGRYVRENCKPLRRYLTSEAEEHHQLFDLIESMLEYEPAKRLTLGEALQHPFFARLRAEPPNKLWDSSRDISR

Broadly, the IC50 is the concentration needed to halve the response being measured. A higher IC50 goes with a need for much substance. As a reminder, the CLint scaled is the rate of metabolic loss divided by the concentration. One may read the viability as a per cent measure of how many cells are alive, often set against a control. Higher therefore signals less harm to the cells. Usually kinetic solubility stands for the concentration staying in solution when a stock, usually in DMSO, is diluted into the medium. For the compound `CCC(=O)Nc1cc(Nc2cc(NC3CC3)n3ncc(C#N)c3n2)c(F)cc1N1CCC[C@H](NC)C1` [Compound 2, (S)-N-(5-((3-cyano-7-(cyclopropylamino)pyrazolo[1,5-a]pyrimidin-5-yl)amino)-4-fluoro-2-(3-(methylamino)piperidin-1-yl)phenyl)propionamide], the IC50 against DAPK2, against PHKG1 and on CLK2 was more than 30 µM throughout. Besides, in the series with CSNK2, the “phosphorylation levels of the CSNK2 substrate EIF2S2” value was “inhibited; also recorded: dose-dependent reduction”. Further, the CLint scaled at 1 μM in series [1] worked out at 180 mL/min/kg. The same compound came in with a viability at 48 h, 0.1 µM in series [2] (0.1 μM) of 100%. The compound also yielded a viability at 48 h, 1 µM in series [2] (1.0 μM) of 76%. The “cytotoxicity in A549-ACE2 cells” value in the series with A549-ACE2 cells (0.1 μM) was “no toxicity”; in the series with A549-ACE2 cells (1.0 μM), “low toxicity”. The solubility (kinetic) at 24 h in “Kinetic solubility” is 59 µg/mL (≈ 120 µM).

Source of the values: article PMC11397024, “Strategic Fluorination to Achieve a Potent, Selective, Metabolically Stable, and Orally Bioavailable Inhibitor of CSNK2” (Molecules, 2024).
